Experimental data reported in US11814390B2, “Crystalline forms of 2-[3-[4-amino-3-(2-fluoro-4-phenoxy-phenyl)-1H-pyrazolo[3,4-D]pyrimidin-1-yl]piperidine-1-carbonyl]-4-methyl-4-[4-(oxetan-3-yl)piperazin-1-yl]pent-2-enenitrile” (Principia Biopharma Inc., priority 2020, dated 2023).
Entries after “also recorded” stand apart in the source; their conditions may differ.

Experiments:
[1] = Water content upon storage at high relative humidity (hygroscopicity); assay type: physicochemical; details: storage at 85% relative humidity (RH)
[2] = Conversion between crystalline forms over time / relative thermodynamic stability at room temperature; assay type: physicochemical
Experimental: Several crystallization experiments were conducted in as part of a polymorph study for Compound (I). The experiments comprised different crystallization techniques such as suspension equilibration experiments, precipitations, cooling crystallizations, and vapor diffusion experiments.

Compound	water content upon storage [1]	conversion of crystalline form over time ([2]; over time)	relative thermodynamic stability of crystalline form ([2]; at room temperature)
CC(C)(C=C(C#N)C(=O)N1CCC[C@@H](n2nc(-c3ccc(Oc4ccccc4)cc3F)c3c(N)ncnc32)C1)N1CCN(C2COC2)CC1 [crystalline Form A, (R)-2-[3-[4-amino-3-(2-fluoro-4-phenoxy-phenyl)pyrazolo[3,4-d]pyrimidin-1-yl]piperidine-1-carbonyl]-4-methyl-4-[4-(oxetan-3-yl)piperazin-1-yl]pent-2-enenitrile]	less than 1%	may convert to crystalline Form B over time	–
CC(C)(C=C(C#N)C(=O)N1CCC[C@@H](n2nc(-c3ccc(Oc4ccccc4)cc3F)c3c(N)ncnc32)C1)N1CCN(C2COC2)CC1 [Crystalline Form B, (R)-2-[3-[4-amino-3-(2-fluoro-4-phenoxy-phenyl)pyrazolo[3,4-d]pyrimidin-1-yl]piperidine-1-carbonyl]-4-methyl-4-[4-(oxetan-3-yl)piperazin-1-yl]pent-2-enenitrile]	–	–	may be thermodynamically more stable than crystalline Form A; also recorded: may be more thermodynamically more stable than crystalline Form C
